Assay results taken from patent US20030187038A1, “Fibrinogen-lowering agents” (priority 2000, published 2003).

Tested on: plasma fibrinogen
Experiment: Fibrinogen-lowering effect in spontaneously hypercholesterolemia (SHC) rats
Format: in vivo, rat
Experimental: Candesartan cilexetil (TCV-116; 0.5% methylcellulose 100 cp suspension; 1 mg/kg (2 ml/kg)) were administered orally to 10-week-old SHC rats once a day for a 6-week period. 0.5% methylcellulose 100 cp suspensions were administered to the control group (vehicle-treated group) in a volume of 2 ml/kg. Fibrinogen concentrations in plasma were measured as follows. At the end of experiments, the blood was withdrawn from aorta abdominalis into 3.8% trisodium citrate solution (Citral, Yamanouchi Pharmaceutical Co.,Ltd., final concentration of 0.38%) and the plasma were prepared by centrifuging at 3000 rpm at room temperature for 20 minutes. The fibrinogen concentration was determined using fibrinogen test RD (Roche Diagnostics) and the clot timer (B-10, Sarstedt, Inc.) with reference to a standard rat fibrinogen (F-6755, Sigma).

CCOc1nc2cccc(C(=O)OC(C)OC(=O)OC3CCCCC3)c2n1Cc1ccc(-c2ccccc2-c2nnn[nH]2)cc1 (centres unmarked) [TCV-116, 1-(cyclohexyloxycarbonyloxy)ethyl 2-ethoxy-1-[[2′-(1H-tetrazol-5-yl)biphenyl-4-yl]methyl]-benzimidazole-7-carboxylate]
Fibrinogen level (SHC rat plasma, 1 mg/kg/day orally once a day for 6 weeks, Mean ± SE, n = 5, p < 0.01 vs vehicle): 354.0 ± 29.1 mg/dL | Effect on plasma fibrinogen level versus control group (SHC rat, 1 mg/kg, comparison with vehicle-treated group): decreased the plasma fibrinogen level of SHC rat significantly
